Source: patent US8461328B2, “Tricyclic heterocyclic compounds, compositions and methods of use thereof” (Genentech, Inc., priority 2010, dated 2013)

Experiments:
Type in all cases: biochemical
JAK1 = biological target: T1, JAK1 (Homo sapiens, UniProt P23458); assay: JAK1 inhibition (Table 4); conditions: read-out: JAK1 Ki
T1 construct: made in house; host or cells: SF9 insect cells (baculovirus)

JAK3 = biological target: T2, JAK3 (Homo sapiens, UniProt P52333); assay: JAK3 inhibition (Table 4); conditions: read-out: JAK3 Ki
T2 construct: made in house; host or cells: SF9 insect cells (baculovirus)
T2 sequence (P52333 783-1124): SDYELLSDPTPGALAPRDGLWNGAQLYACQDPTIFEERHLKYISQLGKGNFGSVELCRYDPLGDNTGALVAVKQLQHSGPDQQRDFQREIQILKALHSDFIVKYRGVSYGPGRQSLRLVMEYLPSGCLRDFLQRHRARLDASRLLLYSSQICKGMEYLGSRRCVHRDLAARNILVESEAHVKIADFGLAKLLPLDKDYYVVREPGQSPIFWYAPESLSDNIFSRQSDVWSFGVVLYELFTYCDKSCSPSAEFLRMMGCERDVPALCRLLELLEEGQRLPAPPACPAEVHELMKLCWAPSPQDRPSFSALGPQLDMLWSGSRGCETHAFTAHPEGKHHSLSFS

JAK2 = biological target: T3, JAK2 (Homo sapiens, UniProt O60674); assay: JAK2 inhibition (Table 4); conditions: read-out: JAK2 Ki
T3 construct: made in house; host or cells: SF9 insect cells (baculovirus)
T3 sequence (O60674 812-1132): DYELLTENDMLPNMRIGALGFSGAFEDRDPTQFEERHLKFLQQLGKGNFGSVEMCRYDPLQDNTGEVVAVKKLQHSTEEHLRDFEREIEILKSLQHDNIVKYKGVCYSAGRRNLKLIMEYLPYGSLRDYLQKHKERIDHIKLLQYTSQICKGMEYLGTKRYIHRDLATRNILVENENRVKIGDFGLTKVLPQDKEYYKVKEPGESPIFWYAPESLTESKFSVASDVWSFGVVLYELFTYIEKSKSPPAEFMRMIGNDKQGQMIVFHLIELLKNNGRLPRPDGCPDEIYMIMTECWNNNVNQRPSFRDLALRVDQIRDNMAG

TYK2 = biological target: T4, TYK2 (Homo sapiens, UniProt P29597); assay: TYK2 inhibition (Table 4)
T4 construct: made in house; host or cells: SF9 insect cells (baculovirus)
T4 sequence (P29597 873-1187): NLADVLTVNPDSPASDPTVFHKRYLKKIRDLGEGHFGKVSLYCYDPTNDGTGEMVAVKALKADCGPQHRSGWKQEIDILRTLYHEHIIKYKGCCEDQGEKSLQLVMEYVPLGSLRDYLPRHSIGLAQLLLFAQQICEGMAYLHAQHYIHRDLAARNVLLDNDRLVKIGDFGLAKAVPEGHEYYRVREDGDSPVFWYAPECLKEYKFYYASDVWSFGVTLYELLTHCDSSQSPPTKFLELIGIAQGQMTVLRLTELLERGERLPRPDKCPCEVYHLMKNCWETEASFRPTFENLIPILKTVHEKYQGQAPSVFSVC

T1 sequence (P23458 852-1154): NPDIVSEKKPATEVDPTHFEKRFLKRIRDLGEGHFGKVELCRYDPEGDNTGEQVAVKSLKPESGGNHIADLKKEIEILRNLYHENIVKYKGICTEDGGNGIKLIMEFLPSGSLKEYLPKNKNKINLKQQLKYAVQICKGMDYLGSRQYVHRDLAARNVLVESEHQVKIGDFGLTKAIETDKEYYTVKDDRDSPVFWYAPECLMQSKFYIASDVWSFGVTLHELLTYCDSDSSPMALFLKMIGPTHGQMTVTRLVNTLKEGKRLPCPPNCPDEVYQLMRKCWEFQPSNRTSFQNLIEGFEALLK

Row | Ki (JAK1) | Ki (JAK3) | Ki (JAK2) | Ki (TYK2) | Structure (SMILES)
1 | 34.9 nM | 468 nM | 156 nM | 449 nM | CC1CNCCC1n1cnc2cnc3[nH]ccc3c21 (racemic) [Example 306, 1-(3-Methyl-piperidin-4-yl)-1,6-dihydro-1,3,5,6-tetraaza-as-indacene]
2 | 47.6 nM | 626 nM | 415 nM | 1050 nM | CC1CNCCC1n1cnc2cnc3[nH]ccc3c21 (racemic) [Example 312, 1-(3-Methyl-piperidin-4-yl)-1,6-dihydro-1,3,5,6-tetraaza-as-indacene]
3 | 0.81 nM | 6.77 nM | 1.77 nM | 7.81 nM | CC1CN(CCC#N)CCC1n1cnc2cnc3[nH]ccc3c21 (racemic) [Example 323, 3-[3-Methyl-4-(6H-1,3,5,6-tetraaza-as-indacen-1-yl)-piperidin-1-yl]-propionitrile]
4 | 0.63 nM | 5.2 nM | 0.6 nM | 3.76 nM | CC1CN(CCC#N)CCC1n1cnc2cnc3[nH]ccc3c21 (racemic) [Example 324, 3-[3-Methyl-4-(6H-1,3,5,6-tetraaza-as-indacen-1-yl)-piperidin-1-yl]-propionitrile]
5 | 2 nM | 23.4 nM | 2.36 nM | 24.9 nM | CC1CN(Cc2cncnc2)CCC1n1cnc2cnc3[nH]ccc3c21 (racemic) [Example 342, 1-(3-Methyl-1-pyrimidin-5-ylmethyl-piperidin-4-yl)-1,6-dihydro-1,3,5,6-tetraaza-as-indacene]
6 | 5.71 nM | 3.2 nM | 14 nM | 346 nM | CC1CN(Cc2cncnc2)CCC1n1cnc2cnc3[nH]ccc3c21 (racemic) [Example 343, 1-(3-Methyl-1-pyrimidin-5-ylmethyl-piperidin-4-yl)-1,6-dihydro-1,3,5,6-tetraaza-as-indacene]
7 | 15.7 nM | 80.4 nM | 30.3 nM | 329 nM | CC1CN(S(C)(=O)=O)CCC1n1cnc2cnc3[nH]ccc3c21 (racemic) [Example 344, 1-(1-Methanesulfonyl-3-methyl-piperidin-4-yl)-1,6-dihydro-1,3,5,6-tetraaza-as-indacene]
8 | 9.12 nM | 354 nM | 9.67 nM | 37.3 nM | CC1CN(S(C)(=O)=O)CCC1n1cnc2cnc3[nH]ccc3c21 (racemic) [Example 345, 1-(1-Methanesulfonyl-3-methyl-piperidin-4-yl)-1,6-dihydro-1,3,5,6-tetraaza-as-indacene]
9 | 6.44 nM | 178 nM | 50.4 nM | 269 nM | CC(O)c1nc2cnc3[nH]ccc3c2n1C1CCN(Cc2ccnc(C#N)c2)CC1 (racemic) [Example 350, 4-{4-[2-(1-Hydroxy-ethyl)-6H-1,3,5,6-tetraaza-as-indacen-1-yl]-piperidin-1-ylmethyl}-pyridine-2-carbonitrile]
10 | 4.94 nM | 31.4 nM | 29.2 nM | 284 nM | CC(O)c1nc2cnc3[nH]ccc3c2n1C1CCN(Cc2csc(C(F)(F)F)n2)CC1 (racemic) [Example 351, 1-{1-[1-(2-Trifluoromethyl-thiazol-4-ylmethyl)-piperidin-4-yl]-1,6-dihydro-1,3,5,6-tetraaza-as-indacen-2-yl}-ethanol]
11 | 1.03 nM | 23.7 nM | 5.62 nM | 44.6 nM | Cc1nc2cnc3[nH]ccc3c2n1C1CCC(NC(=O)OC(C)(C)C)C1 (racemic) [Example 352, [(1S,3S)-3-(2-Methyl-6H-1,3,5,6-tetraaza-as-indacen-1-yl]-cyclopentyl]-carbamic acid tert-butyl ester]
12 | 3.79 nM | 41.2 nM | 44.8 nM | 34.5 nM | CC(O)c1nc2cnc3[nH]ccc3c2n1C1CCN(CC(F)(F)F)CC1 (racemic) [Example 355, 1-{1-[1-(2,2,2-Trifluoro-ethyl)-piperidin-4-yl]-1,6-dihydro-1,3,5,6-tetraaza-as-indacen-2-yl}-ethanol]
13 | 2.74 nM | 25.5 nM | 14.4 nM | 71.8 nM | CCC(C)S(=O)(=O)NCCc1nc2cnc3[nH]ccc3c2n1C1CCN(CCC#N)CC1 (racemic) [Example 369, Butane-2-sulfonic acid (2-{1-[1-(2-cyano-ethyl)-piperidin-4-yl]-1,6-dihydro-1,3,5,6-tetraaza-as-indacen-2-yl}-ethyl)-amide]
14 | 17.5 nM | 48.1 nM | 138 nM | 526 nM | CN1CC(c2nc3cnc4[nH]ccc4c3n2C2CCN(CCC#N)CC2)CC1=O (racemic) [Example 384, 3-{4-[2-(1-Methyl-5-oxo-pyrrolidin-3-yl)-6H-1,3,5,6-tetraaza-as-indacen-1-yl]-piperidin-1-yl}-propionitrile]
15 | 23.6 nM | 77.3 nM | 167 nM | 446 nM | CC(C)N1CC(c2nc3cnc4[nH]ccc4c3n2C2CCN(CCC#N)CC2)CC1=O (racemic) [Example 388, 3-{4-[2-(1-Isopropyl-5-oxo-pyrrolidin-3-yl)-6H-1,3,5,6-tetraaza-as-indacen-1-yl]-piperidin-1-yl}-propionitrile]
16 | 21.5 nM | 47.9 nM | 75.6 nM | 446 nM | CC(=O)N1CCC(c2nc3cnc4[nH]ccc4c3n2C2CCN(CCC#N)CC2)C1 (racemic) [Example 390, 3-{4-[2-(1-Acetyl-pyrrolidin-3-yl)-6H-1,3,5,6-tetraaza-as-indacen-1-yl]-piperidin-1-yl}-propionitrile]
17 | 7.53 nM | 35.8 nM | 27.1 nM | 91.9 nM | CC(CC#N)N1CCC(n2c(C3CCOC3)nc3cnc4[nH]ccc4c32)CC1 (racemic) [Example 391, 3-{4-[2-(Tetrahydro-furan-3-yl)-6H-1,3,5,6-tetraaza-as-indacen-1-yl]-piperidin-1-yl}-butyronitrile]
18 | 6.67 nM | 33.9 nM | 16.7 nM | 128 nM | CC(CC#N)N1CCC(n2c(C3CCC3)nc3cnc4[nH]ccc4c32)CC1 (racemic) [Example 392, 3-[4-(2-Cyclobutyl-6H-1,3,5,6-tetraaza-as-indacen-1-yl)-piperidin-1-yl]-butyronitrile]
19 | 45.6 nM | 29.9 nM | 44.7 nM | 382 nM | CC(CC#N)N1CCC(n2c(C3CCOCC3)nc3cnc4[nH]ccc4c32)CC1 (racemic) [Example 393, 3-{4-[2-(Tetrahydro-pyran-4-yl)-6H-1,3,5,6-tetraaza-as-indacen-1-yl]-piperidin-1-yl}-butyronitrile]
20 | 18.3 nM | 152 nM | 37.9 nM | 170 nM | CC(CC#N)N1CCC(n2c(CCn3cncn3)nc3cnc4[nH]ccc4c32)CC1 (racemic) [Example 394, 3-{4-[2-(2-[1,2,4]Triazol-1-yl-ethyl)-6H-1,3,5,6-tetraaza-as-indacen-1-yl]-piperidin-1-yl}-butyronitrile]
21 | 17.7 nM | 96.5 nM | 73 nM | 245 nM | CC(CC#N)N1CCC(n2c(C3CC(=O)N(C)C3)nc3cnc4[nH]ccc4c32)CC1 (racemic) [Example 395, 3-{4-[2-(1-Methyl-5-oxo-pyrrolidin-3-yl)-6H-1,3,5,6-tetraaza-as-indacen-1-yl]-piperidin-1-yl}-butyronitrile]
22 | 15.5 nM | 18.1 nM | 35.9 nM | 95 nM | CC(CC#N)N1CCC(n2c(CS(C)(=O)=O)nc3cnc4[nH]ccc4c32)CC1 (racemic) [Example 396, 3-[4-(2-Methanesulfonylmethyl-6H-1,3,5,6-tetraaza-as-indacen-1-yl)-piperidin-1-yl]-butyronitrile]
23 | 29.9 nM | 114 nM | 62.4 nM | 269 nM | CC(=O)N1CCC(c2nc3cnc4[nH]ccc4c3n2C2CCN(C(C)CC#N)CC2)C1 (racemic) [Example 397, 3-{4-[2-(1-Acetyl-pyrrolidin-3-yl)-6H-1,3,5,6-tetraaza-as-indacen-1-yl]-piperidin-1-yl}-butyronitrile]
24 | 20.8 nM | 179 nM | 47 nM | 241 nM | CC(=O)N(C)CCc1nc2cnc3[nH]ccc3c2n1C1CCN(C(C)CC#N)CC1 (racemic) [Example 398, N-(2-{1-[1-(2-Cyano-1-methyl-ethyl)-piperidin-4-yl]-1,6-dihydro-1,3,5,6-tetraaza-as-indacen-2-yl}-ethyl)-N-methyl-acetamide]
25 | 33.1 nM | 125 nM | 97.1 nM | 179 nM | CC(CC#N)N1CCC(n2c(CN3CCCC3=O)nc3cnc4[nH]ccc4c32)CC1 (racemic) [Example 399, 3-{4-[2-(2-Oxo-pyrrolidin-1-ylmethyl)-6H-1,3,5,6-tetraaza-as-indacen-1-yl]-piperidin-1-yl}-butyronitrile]
26 | 62.6 nM | 283 nM | 115 nM | 428 nM | CC(=O)N1CCC(c2nc3cnc4[nH]ccc4c3n2C2CCN(C(C)CC#N)CC2)CC1 (racemic) [Example 400, 3-{4-[2-(1-Acetyl-piperidin-4-yl)-6H-1,3,5,6-tetraaza-as-indacen-1-yl]-piperidin-1-yl}-butyronitrile]
27 | 9.49 nM | 35.4 nM | 22.8 nM | 96.8 nM | CC(CC#N)N1CCC(n2c(CC3CC3)nc3cnc4[nH]ccc4c32)CC1 (racemic) [Example 401, 3-[4-(2-Cyclopropylmethyl-6H-1,3,5,6-tetraaza-as-indacen-1-yl)-piperidin-1-yl]-butyronitrile]
